Measurements published in patent publication US12065436B2, “Cardiac sarcomere inhibitors” (Cytokinetics, Inc., priority 2018, dated 2024).

Biological target: bovine cardiac myofibrils (full-length cardiac myosin ATPase in the native sarcomere) (Bos taurus (Bovine), UniProt Q9BE39)
Assay: Skinned bovine cardiac myofibril ATPase assay (PK/LDH-coupled)
Format: biochemical
Conditions: Ca2+ activating to 75% of maximal rate; for CDMF75 IC15: concentration giving 15% inhibition; for IC50: read-out: CDMF75 IC50
Description: To evaluate the effect of compounds on the ATPase activity of full-length cardiac myosin in the context of the native sarcomere, skinned myofibril assays were performed. Bovine cardiac myofibrils were obtained by homogenizing bovine cardiac left ventricular tissue in the presence of a detergent such as triton X-100. Such treatment removes membranes and a majority of the soluble cytoplasmic proteins but leaves intact the cardiac sarcomeric acto-myosin apparatus. Myofibril preparations retain the ability to hydrolyze ATP in an Ca^2+ regulated manner. ATPase activities of such myofibril preparations in the presence and absence of compounds were assayed at Ca^2+ concentrations activating to a defined fraction of the maximal rate (i.e., 25%, 75%). Small molecule agents were assessed for their ability to inhibit the steady-state ATPase activity of bovine cardiac myofibrils using pyruvate kinase and lactate dehydrogenase (PK/LDH)-coupled enzyme system. This assay regenerates myosin-produced ADP into ATP by oxidizing NADH, producing an absorbance change at 340 nm. Prior to testing small molecule agents, the bovine cardiac myofibrils were assessed for their calcium responsiveness and the calcium concentration that achieves either a 50% (pCa50) or 75% (pCa75) activation of the myofibril system was chosen as the final condition for assessing the inhibitory activity of the small molecule agents. All enzymatic activity was measured in a buffered solution containing 12 mM PIPES (piperazine-N,N′-bis(2-ethanesulfonic acid), 2 mM magnesium chloride at pH 6.8 (PM 12 buffer). Final assay conditions were 1 mg/mL of bovine cardiac myofibrils, 4 U/mL pyruvate kinase, 6 U/mL lactate dehydrogenase, 50 μM ATP, 0.1 mg/mL BSA (bovine serum albumin), 10 ppm antifoam, 1 mM DTT, 0.5 mM NADH, 1.5 mM PEP, 0.6 mM EGTA, and an amount of CaCl2) sufficient to achieve either 50% or 75% activation of the myofibril ATPase activity.

Chain of bovine cardiac myofibrils (full-length cardiac myosin ATPase in the native sarcomere) (Q9BE39 whole entry): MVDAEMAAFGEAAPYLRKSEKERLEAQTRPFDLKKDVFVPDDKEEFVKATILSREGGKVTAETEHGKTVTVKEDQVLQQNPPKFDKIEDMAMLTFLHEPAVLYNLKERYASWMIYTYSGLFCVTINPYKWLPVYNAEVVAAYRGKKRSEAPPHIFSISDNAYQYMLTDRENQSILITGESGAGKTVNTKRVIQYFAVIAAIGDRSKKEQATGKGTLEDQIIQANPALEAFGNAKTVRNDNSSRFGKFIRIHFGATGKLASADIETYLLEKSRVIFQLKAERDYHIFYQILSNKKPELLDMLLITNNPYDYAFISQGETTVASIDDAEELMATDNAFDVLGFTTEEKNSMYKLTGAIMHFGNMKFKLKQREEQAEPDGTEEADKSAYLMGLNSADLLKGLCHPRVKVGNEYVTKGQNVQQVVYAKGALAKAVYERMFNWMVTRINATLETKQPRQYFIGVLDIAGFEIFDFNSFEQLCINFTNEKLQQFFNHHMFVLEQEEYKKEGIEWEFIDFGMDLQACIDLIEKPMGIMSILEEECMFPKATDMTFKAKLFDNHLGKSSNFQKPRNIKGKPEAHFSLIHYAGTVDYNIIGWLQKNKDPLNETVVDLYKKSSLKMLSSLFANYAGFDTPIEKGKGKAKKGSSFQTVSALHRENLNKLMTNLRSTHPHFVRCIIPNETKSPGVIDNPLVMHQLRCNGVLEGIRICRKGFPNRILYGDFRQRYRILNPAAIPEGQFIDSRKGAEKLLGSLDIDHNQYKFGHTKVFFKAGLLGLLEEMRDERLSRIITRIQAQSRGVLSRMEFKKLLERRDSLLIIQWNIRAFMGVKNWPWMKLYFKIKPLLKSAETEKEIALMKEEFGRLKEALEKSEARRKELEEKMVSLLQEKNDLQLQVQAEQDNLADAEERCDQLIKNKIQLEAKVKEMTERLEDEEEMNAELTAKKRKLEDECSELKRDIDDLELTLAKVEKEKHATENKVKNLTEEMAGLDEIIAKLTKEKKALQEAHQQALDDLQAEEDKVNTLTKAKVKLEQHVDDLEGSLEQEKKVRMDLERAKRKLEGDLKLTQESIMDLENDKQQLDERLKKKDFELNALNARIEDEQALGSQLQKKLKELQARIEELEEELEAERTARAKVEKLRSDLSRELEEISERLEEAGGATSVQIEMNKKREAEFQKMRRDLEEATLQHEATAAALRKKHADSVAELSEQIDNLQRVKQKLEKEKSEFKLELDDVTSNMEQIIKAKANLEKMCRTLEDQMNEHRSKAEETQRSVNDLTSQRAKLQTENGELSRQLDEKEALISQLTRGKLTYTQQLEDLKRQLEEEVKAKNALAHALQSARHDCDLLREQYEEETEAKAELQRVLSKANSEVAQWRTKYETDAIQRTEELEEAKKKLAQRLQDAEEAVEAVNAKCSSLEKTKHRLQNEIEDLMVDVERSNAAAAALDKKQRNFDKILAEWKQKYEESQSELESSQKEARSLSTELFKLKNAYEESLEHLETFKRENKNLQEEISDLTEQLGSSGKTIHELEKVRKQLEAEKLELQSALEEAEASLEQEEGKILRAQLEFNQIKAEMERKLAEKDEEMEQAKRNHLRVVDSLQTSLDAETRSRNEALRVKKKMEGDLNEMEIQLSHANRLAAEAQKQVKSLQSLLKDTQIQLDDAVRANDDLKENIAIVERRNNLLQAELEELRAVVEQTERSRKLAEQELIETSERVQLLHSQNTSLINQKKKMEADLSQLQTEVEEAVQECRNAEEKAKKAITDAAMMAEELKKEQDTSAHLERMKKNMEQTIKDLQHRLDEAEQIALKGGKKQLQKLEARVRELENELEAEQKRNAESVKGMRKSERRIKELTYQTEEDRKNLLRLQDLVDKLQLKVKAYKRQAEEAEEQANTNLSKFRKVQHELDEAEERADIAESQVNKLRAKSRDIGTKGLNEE
Chain of bovine cardiac myofibrils (full-length cardiac myosin ATPase in the native sarcomere) (P85100 whole entry partner): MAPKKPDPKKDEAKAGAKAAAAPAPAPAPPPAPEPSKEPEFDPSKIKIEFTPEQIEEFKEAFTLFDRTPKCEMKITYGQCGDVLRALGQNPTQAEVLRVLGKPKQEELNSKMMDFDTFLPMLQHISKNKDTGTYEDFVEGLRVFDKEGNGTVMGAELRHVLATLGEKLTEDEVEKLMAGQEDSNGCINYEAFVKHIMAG
Chain of bovine cardiac myofibrils (full-length cardiac myosin ATPase in the native sarcomere) (Q3SZE5 whole entry partner): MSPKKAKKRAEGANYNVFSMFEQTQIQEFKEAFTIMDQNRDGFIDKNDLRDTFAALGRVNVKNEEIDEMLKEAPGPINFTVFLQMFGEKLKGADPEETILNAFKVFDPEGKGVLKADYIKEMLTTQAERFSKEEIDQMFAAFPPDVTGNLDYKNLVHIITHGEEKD

Cc1noc(-c2ccc3c(c2)OC[C@H]3NC(=O)c2ccnn2C)n1 [Compound 314, (S)-1-methyl-N-(6-(3-methyl-1,2,4-oxadiazol-5-yl)-2,3-dihydrobenzofuran-3-yl)-1H-pyrazole-5-carboxamide]
CDMF75 IC15: 0.7 µM | IC50: 2.4 µM

CCc1nc(-c2ccc3c(c2)CC[C@H]3NC(=O)c2cnn(CCOC)c2)no1 [Compound 472, (R)-N-(5-(5-ethyl-1,2,4-oxadiazol-3-yl)-2,3-dihydro-1H-inden-1-yl)-1-(2-methoxyethyl)-1H-pyrazole-4-carboxamide]
CDMF75 IC15: 0.8 µM | IC50: 3.1 µM

Cc1ncoc1C(=O)N[C@@H]1COc2cc(-c3noc(C4CC4)n3)ccc21 [Compound 456, (S)-N-(6-(5-cyclopropyl-1,2,4-oxadiazol-3-yl)-2,3-dihydrobenzofuran-3-yl)-4-methyloxazole-5-carboxamide]
CDMF75 IC15: 0.3 µM | IC50: 1.1 µM

Cc1ncc(C(=O)NC2CCc3cc(-c4noc(C(F)F)n4)ccc32)s1 (centres unmarked) [Compound 10, N-(5-(5-(difluoromethyl)-1,2,4-oxadiazol-3-yl)-2,3-dihydro-1H-inden-1-yl)-2-methylthiazole-5-carboxamide]
CDMF75 IC15: 1.0 µM | IC50: 3.4 µM

Cc1cc(C(=O)NC2COc3cc(-c4noc(C)n4)cnc32)ccn1 (centres unmarked) [Compound 187, 2-methyl-N-(6-(5-methyl-1,2,4-oxadiazol-3-yl)-2,3-dihydrofuro[3,2-b]pyridin-3-yl)isonicotinamide]
CDMF75 IC15: 11.5 µM | IC50: > 39.2 µM

Cc1nn(C)cc1C(=O)N[C@@H]1CCc2cc(-c3noc(C4CC4)n3)ccc21 [Compound 154, (R)-N-(5-(5-cyclopropyl-1,2,4-oxadiazol-3-yl)-2,3-dihydro-1H-inden-1-yl)-1,3-dimethyl-1H-pyrazole-4-carboxamide]
CDMF75 IC15: 0.4 µM | IC50: 1.5 µM

CCc1nc(-c2ccc3c(c2)CC[C@H]3NC(=O)c2ncc(C)o2)no1 [Compound 636, (R)-N-(5-(5-ethyl-1,2,4-oxadiazol-3-yl)-2,3-dihydro-1H-inden-1-yl)-5-methyloxazole-2-carboxamide]
CDMF75 IC15: 0.6 µM | IC50: 2.2 µM

CCc1nc(-c2cc(Cl)c3c(c2)CC[C@H]3NC(=O)c2cnn(C)c2)no1 [Compound 588, (R)-N-(7-chloro-5-(5-ethyl-1,2,4-oxadiazol-3-yl)-2,3-dihydro-1H-inden-1-yl)-1-methyl-1H-pyrazole-4-carboxamide]
CDMF75 IC15: 1.2 µM | IC50: 4.3 µM

COCc1nc(-c2ccc3c(c2)CC[C@H]3NC(=O)c2nonc2C)no1 [Compound 692, (R)-N-(5-(5-(methoxymethyl)-1,2,4-oxadiazol-3-yl)-2,3-dihydro-1H-inden-1-yl)-4-methyl-1,2,5-oxadiazole-3-carboxamide]
CDMF75 IC15: 1.0 µM | IC50: 4.6 µM

CCc1nc(-c2ccc3c(c2)OC[C@H]3NC(=O)c2conc2C)no1 [Compound 340, (S)-N-(6-(5-ethyl-1,2,4-oxadiazol-3-yl)-2,3-dihydrobenzofuran-3-yl)-3-methylisoxazole-4-carboxamide]
CDMF75 IC15: 0.3 µM | IC50: 0.7 µM

[2H]C([2H])([2H])c1nc(-c2ccc3c(c2)OC[C@H]3NC(=O)c2oc(C)nc2C)no1 [Compound 268, (S)-2,4-dimethyl-N-(6-(5-(methyl-d3)-1,2,4-oxadiazol-3-yl)-2,3-dihydrobenzofuran-3-yl)oxazole-5-carboxamide]
CDMF75 IC15: 1.9 µM | IC50: 5.1 µM

Cc1cc(C(=O)NC2CCc3cc(-c4coc(C)n4)ccc32)ccn1 (centres unmarked) [Compound 145, 2-methyl-N-(5-(2-methyloxazol-4-yl)-2,3-dihydro-1H-inden-1-yl)isonicotinamide]
CDMF75 IC15: 39.2 µM | IC50: > 39.2 µM

CCc1nc(-c2ccc3c(c2)CC[C@H]3NC(=O)c2ccncc2C)no1 [Compound 629, (R)-N-(5-(5-ethyl-1,2,4-oxadiazol-3-yl)-2,3-dihydro-1H-inden-1-yl)-3-methylisonicotinamide]
CDMF75 IC15: 2.1 µM | IC50: 9.4 µM

CCc1nc(-c2ccc3c(c2)OC[C@H]3NC(=O)OC)no1 [Compound 349, methyl (S)-(6-(5-ethyl-1,2,4-oxadiazol-3-yl)-2,3-dihydrobenzofuran-3-yl)carbamate]
CDMF75 IC15: 0.3 µM | IC50: 0.9 µM

COCc1nc(-c2ccc3c(c2)CC[C@H]3NC(=O)c2cnc(C)s2)no1 [Compound 696, (R)-N-(5-(5-(methoxymethyl)-1,2,4-oxadiazol-3-yl)-2,3-dihydro-1H-inden-1-yl)-2-methylthiazole-5-carboxamide]
CDMF75 IC15: 1.1 µM | IC50: 4.2 µM

Cc1nc(-c2ccc3c(c2)CCC3NC(=O)c2cnn3c2CCC3)no1 (centres unmarked) [Compound 57, N-(5-(5-methyl-1,2,4-oxadiazol-3-yl)-2,3-dihydro-1H-inden-1-yl)-5,6-dihydro-4H-pyrrolo[1,2-b]pyrazole-3-carboxamide]
CDMF75 IC15: 2.8 µM | IC50: 8.9 µM

O=C1CC[C@@H](C(=O)N[C@@H]2CCc3cc(-c4noc(C5CC5)n4)ccc32)N1 [Compound 338, (S)-N-((R)-5-(5-cyclopropyl-1,2,4-oxadiazol-3-yl)-2,3-dihydro-1H-inden-1-yl)-5-oxopyrrolidine-2-carboxamide]
CDMF75 IC15: 39.2 µM | IC50: > 39.2 µM

Cn1cc(C(=O)NC2CCc3cc(-c4noc(C(F)F)n4)ccc32)cn1 (centres unmarked) [Compound 7, N-(5-(5-(difluoromethyl)-1,2,4-oxadiazol-3-yl)-2,3-dihydro-1H-inden-1-yl)-1-methyl-1H-pyrazole-4-carboxamide]
CDMF75 IC15: 1.1 µM | IC50: 4.8 µM

CC(C)c1nc(-c2ccc3c(c2)CC[C@H]3NC(=O)c2nnn(Cc3ccccc3)n2)no1 [Compound 500, (R)-2-benzyl-N-(5-(5-isopropyl-1,2,4-oxadiazol-3-yl)-2,3-dihydro-1H-inden-1-yl)-2H-tetrazole-5-carboxamide]
CDMF75 IC15: 1.0 µM | IC50: 6.5 µM

Cc1cc(C(=O)NC2COc3cc(-c4noc(C5CC5)n4)ccc32)n(C)n1 (centres unmarked) [Compound 232, N-(6-(5-cyclopropyl-1,2,4-oxadiazol-3-yl)-2,3-dihydrobenzofuran-3-yl)-1,3-dimethyl-1H-pyrazole-5-carboxamide]
CDMF75 IC15: 0.7 µM | IC50: 2.4 µM

COCCn1cc(C(=O)N[C@@H]2CCc3cc(-c4noc(C(F)F)n4)ccc32)cn1 [Compound 529, (R)-N-(5-(5-(difluoromethyl)-1,2,4-oxadiazol-3-yl)-2,3-dihydro-1H-inden-1-yl)-1-(2-methoxyethyl)-1H-pyrazole-4-carboxamide]
CDMF75 IC15: 1.8 µM | IC50: 6.8 µM

O=C(N[C@@H]1CCc2cc(-c3noc(C(F)F)n3)ccc21)OC1CCC1 [Compound 281, cyclobutyl (R)-(5-(5-(difluoromethyl)-1,2,4-oxadiazol-3-yl)-2,3-dihydro-1H-inden-1-yl)carbamate]
CDMF75 IC15: 0.9 µM | IC50: > 39.2 µM

COCc1nc(-c2ccc3c(c2)CC[C@H]3NC(=O)c2cnn(C)c2)no1 [Compound 178, (R)-N-(5-(5-(methoxymethyl)-1,2,4-oxadiazol-3-yl)-2,3-dihydro-1H-inden-1-yl)-1-methyl-1H-pyrazole-4-carboxamide]
CDMF75 IC15: 1.9 µM | IC50: 6.8 µM

Cc1ncc(C(=O)N[C@@H]2CCc3cc(-c4noc(C(F)F)n4)ccc32)s1 [Compound 676, (R)-N-(5-(5-(difluoromethyl)-1,2,4-oxadiazol-3-yl)-2,3-dihydro-1H-inden-1-yl)-2-methylthiazole-5-carboxamide]
CDMF75 IC15: 0.5 µM | IC50: 1.8 µM

CCc1nc(-c2ccc3c(c2)OC[C@H]3NC(=O)NCCO)no1 [Compound 745, (S)-1-(6-(5-ethyl-1,2,4-oxadiazol-3-yl)-2,3-dihydrobenzofuran-3-yl)-3-(2-hydroxyethyl)urea]
CDMF75 IC15: 0.8 µM | IC50: 3.8 µM

COCc1nc(-c2ccc3c(c2)CC[C@H]3NC(=O)c2cc(CO)ccn2)no1 [Compound 672, (R)-4-(hydroxymethyl)-N-(5-(5-(methoxymethyl)-1,2,4-oxadiazol-3-yl)-2,3-dihydro-1H-inden-1-yl)picolinamide]
CDMF75 IC15: 3.2 µM | IC50: 13.7 µM

[2H]C([2H])([2H])c1nc(-c2ccc3c(c2)OC[C@H]3NC(=O)c2nnn(C)n2)no1 [Compound 271, (S)-2-methyl-N-(6-(5-(methyl-d3)-1,2,4-oxadiazol-3-yl)-2,3-dihydrobenzofuran-3-yl)-2H-tetrazole-5-carboxamide]
CDMF75 IC15: 4.3 µM | IC50: 17.1 µM

O=C1C[C@@H](C(=O)N[C@@H]2CCc3cc(-c4noc(C5CC5)n4)ccc32)N1 [Compound 316, (S)-N-((R)-5-(5-cyclopropyl-1,2,4-oxadiazol-3-yl)-2,3-dihydro-1H-inden-1-yl)-4-oxoazetidine-2-carboxamide]
CDMF75 IC15: 15.6 µM | IC50: > 39.2 µM
